# Measurements as given in patent US20200316038A1, “METHODS AND COMPOSITIONS FOR TREATING UREA CYCLE DISORDERS, IN PARTICULAR OTC DEFICIENCY” (CAMP4 THERAPEUTICS CORPORATION, priority 2017, published 2020).
# Like-named read-outs stand apart in the source and are kept apart here.
# B1: Anti mullerian hormone: member of the TGF-B gene family (protein, UniProt P03971 452-560, looked up)
# Muellerian-inhibiting factor: SAGATAADGPCALRELSVDLRAERSVLIPETYQANNCQGVCGWPQSDRNPRYGNHVVLLLKMQVRGAALARPPCCVPTAYAGKLLISLSEERISAHHVPNMVATECGCR
# B2: Nodal: 13 kDa member of the TGF-B superfamily (protein, UniProt Q96S42 238-347, looked up)
# Nodal homolog: HHLPDRSQLCRKVKFQVDFNLIGWGSWIIYPKQYNAYRCEGECPNPVGEEFHPTNHAYIQSLLKRYQPHRVPSTCCAPVKTKPLSMLYVDNGRVLLDHHKDMIVEECGCL
# B3: GDF2 (BMP9): member of BMP family and the TGF-B superfamily (protein, UniProt Q9UK05 320-429, looked up)
# Growth/differentiation factor …: SAGAGSHCQKTSLRVNFEDIGWDSWIIAPKEYEAYECKGGCFFPLADDVTPTKHAIVQTLVHLKFPTKVGKACCVPTKLSPISVLYKDDMGVPTLKYHYEGMSVAECGCR
# B4: Wnt3a: WNT family secreted signaling protein; FRIZZLED activator (protein, UniProt P56704 19-352, looked up)
# Protein Wnt-3a: SYPIWWSLAVGPQYSSLGSQPILCASIPGLVPKQLRFCRNYVEIMPSVAEGIKIGIQECQHQFRGRRWNCTTVHDSLAIFGPVLDKATRESAFVHAIASAGVAFAVTRSCAEGTAAICGCSSRHQGSPGKGWKWGGCSEDIEFGGMVSREFADARENRPDARSAMNRHNNEAGRQAIASHMHLKCKCHGLSGSCEVKTCWWSQPDFRAIGDFLKDKYDSASEMVVEKHRESRGWVETLRPRYTYFKVPTERDLVYYEASPNFCEPNPETGSFGTRDRTCNVSSHGIDGCDLLCCGRGHNARAERRREKCRCVFHWCCYVSCQECTRVYDVHTCK
# Experiments:
# calcium channel = calcium channel blocker; cited from earlier work
# CPS1 = experiment: RNA-seq, CPS1 expression in compound-treated primary human hepatocytes; format: cell-based
# ARG1 = experiment: RNA-seq, ARG1 expression in compound-treated primary human hepatocytes; format: cell-based
# ASL = experiment: RNA-seq, ASL expression in compound-treated primary human hepatocytes; format: cell-based
# [1] = system: multiple urea cycle-related genes; experiment: RNA-seq, compounds that modulate multiple urea cycle-related genes; format: cell-based; conditions: primary human hepatocytes; for Up-regulated Genes: urea cycle-related genes significantly increased by the compound
# OTC [2] = experiment: OTC expression modulated by compounds (OTC/Geo Mean of HKs, DMSO = 1); format: cell-based, human; conditions: OTC expression; compound at 10 uM final concentration
# HSP90 = conditions: cited from earlier work
# SLC25A15 = experiment: RNA-seq, SLC25A15 expression in compound-treated primary human hepatocytes; format: cell-based; conditions: compounds that significantly increase SLC25A15 expression
# ASS1 = experiment: RNA-seq, ASS1 expression in compound-treated primary human hepatocytes; format: cell-based
# OTC [3] = experiment: RNA-seq, OTC expression in compound-treated primary human hepatocytes; format: cell-based
# OTC [4] = experiment: siRNA transfection of primary human hepatocytes, OTC qPCR; format: cell-based; conditions: siRNA 10 nM, 48hrs, vs control non-targeting siRNA
# Procedure: Primary human hepatocytes were reversed transfected with 6pmol siRNA using RNAiMAX Reagent (ThermoFisher Cat No13778030) in 24 well format, 1 ul per well (for a final cone of 10 nM). The following morning, the medium was removed and replaced with Modified Maintenance Medium (see above) for an additional 24 hrs. The entire treatment lasted 48hrs, at which point the medium was removed and replaced with RLT Buffer for RNA extraction (Qiagen RNeasy 96 QIAcube HT Kit Cat#74171). siRNAs were obtained from Dharmacon and are a pool of four siRNA duplex all designed to target distinct sites within the specific gene of interest (known as “SMARTpool”). They were tested against the control non-targeting siRNA D-001206-13-05.
# Isolated RNA was processed for cDNA synthesis and qPCR as described above. Taqman assay used for OTC measurement: Hs00166892_m1
# [5] = RNA-seq, primary human hepatocytes, compounds that significantly increase NAGS expression
# [6] = RNA-seq, primary human hepatocytes, compounds that significantly increase ARG1 expression
# [7] = RNA-seq, primary human hepatocytes, compounds that significantly increase ASL expression
Molecule,Fold change (Log 2) vs untreated (CPS1),"ARG1 expression, Fold change (Log 2) vs untreated (ARG1; [6])",number of urea cycle genes whose expression was significantly up-regulated [1],Up-regulated Genes [1],"SLC25A15 expression, Fold change (Log 2) vs untreated (SLC25A15)",Fold change (Log 2) vs untreated (ASS1),Fold change (Log 2) vs untreated (OTC [3]),further results
CCOC(=O)C1=C(COCCN)NC(C)=C(C(=O)OC)C1c1ccccc1Cl (stereo not shown) [Amlodipine Besylate],–,–,–,–,–,–,–,"NAGS expression, Fold change (Log 2) vs untreated (NAGS; [5]): 0.73 Log 2; IC50 (calcium channel): 1.9 nM"
Cc1cc(-c2nc(-c3ccc(OC(F)(F)F)cc3)no2)nn1Cc1ccnc(N2CCN(C3CC3)CC2)c1 [BAY 87-2243],1.81 Log 2,1.09 Log 2,three,"CPS1, ASL, ARG1",–,–,–,"ASL expression, Fold change (Log 2) vs untreated (ASL; [7]): 0.58 Log 2"
C[C@]12C[C@H](O)[C@H]3[C@@H](CCC4=CC(=O)CC[C@@]43C)[C@@H]1CC[C@@H]2C(=O)CO [Corticosterone],–,–,–,–,0.96 Log 2,–,–,–
C[C@]12CC[C@H]3[C@@H](CCC4=CC(=O)CC[C@@]43C)[C@@H]1CC[C@@H]2C(=O)CO [Deoxycorticosterone],3.79 Log 2,1.37 Log 2,four,"CPS1, ASS1, ARG1, SLC25A15",–,0.6 Log 2,–,–
CNC[C@H](O)c1ccc(O)c(O)c1 [Epinephrine],4.85 Log 2,–,five,–,1.14 Log 2,1.08 Log 2,–,"ARG1 expression, Fold change (Log 2) vs untreated (ARG1): 2.28 Log 2; ASL expression, Fold change (Log 2) vs untreated (ASL): 0.6 Log 2"
"COc1cccc2c1C(=O)c1c(O)c3c(c(O)c1C2=O)C[C@@](O)(/C(CO)=N/NC(=O)CCCCCN1C(=O)C=CC1=O)C[C@@H]3O[C@H]1C[C@H](N)[C@H](O)[C@H](C)O1 [INNO-206 (aldoxorubicin), aldoxorubicin]",–,–,three,"NAGS, ASS1, OTC",–,0.58 Log 2,0.87 Log 2,"Max Value (OTC/Geo Mean of HKs; DMSO = 1) (OTC [2]): 2.36; NAGS expression, Fold change (Log 2) vs untreated (NAGS; [5]): 1.63 Log 2"
O=C1NC(=O)/C(=C/c2cccc(C(F)(F)F)c2)S1 [SMI-4a],–,–,–,–,–,0.69 Log 2,–,"NAGS expression, Fold change (Log 2) vs untreated (NAGS): 1.25 Log 2"
"CN(C)[C@@H]1C(O)=C(C(N)=O)C(=O)[C@@]2(O)C(O)=C3C(=O)c4c(O)c(NC(=O)CN5CCCC5)cc(F)c4C[C@H]3C[C@@H]12 [TP-434 (Eravacycline), Eravacycline]",–,–,–,–,–,0.76 Log 2,–,"NAGS expression, Fold change (Log 2) vs untreated (NAGS; [5]): 1.5 Log 2"
O=C1CCC(N2C(=O)c3ccccc3C2=O)C(=O)N1 (stereo not shown) [Thalidomide],1.02 Log 2,1.16 Log 2,five,"NAGS, CPS1, ALS, OTC, ARG1",–,–,1.21 Log 2,"ASL expression, Fold change (Log 2) vs untreated (ASL; [7]): 0.56 Log 2; NAGS expression, Fold change (Log 2) vs untreated (NAGS): 1.1 Log 2"
COc1nc(N)nc2c1ncn2[C@@H]1O[C@H](COP(=O)(N[C@@H](C)C(=O)OCC(C)(C)C)Oc2cccc3ccccc23)[C@@H](O)[C@@]1(C)O (stereo partly shown) [bms-986094 (inx-189)],–,–,–,–,1.18 Log 2,–,–,–
Activin,2.23 Log 2,2.01 Log 2,four,"NAGS, CPS1, OTC, ARG1",–,–,0.94 Log 2,"NAGS expression, Fold change (Log 2) vs untreated (NAGS): 0.69 Log 2"
FGF: Fibroblast Growth Factor-acidic (FGF-1); FGFR activator,1.72 Log 2,1.24 Log 2,three,"CPS1, OTC, ARG1",–,–,0.56 Log 2,–
"HGF/SF: Hepatocyte Growth Factor, scatter factor; c-Met activator",2.02 Log 2,1.51 Log 2,four,"NAGS, CPS1, OTC, ARG1",–,–,0.56 Log 2,"NAGS expression, Fold change (Log 2) vs untreated (NAGS): 0.56 Log 2"
IGF-1: Insulin-like growth factor I; IGF-1R activator,2.22 Log 2,1.89 Log 2,four,"CPS1, OTC, ARG1, SLC25A15",0.8 Log 2,–,0.76 Log 2,Max fold change in OTC (OTC [4]): 1.69
IRF1 (DNA GAAAGTGAAAGT; siRNA; chemistry not fully specified),–,–,–,–,–,–,–,Max fold change in OTC (OTC [4]): 1.70
PDGF,2.12 Log 2,1.85 Log 2,four,"CPS1, OTC, ARG1, SLC25A15",0.71 Log 2,–,0.77 Log 2,–
TNF-α,2.31 Log 2,1.87 Log 2,four,"CPS1, ASS1, OTC, ARG1",–,0.58 Log 2,0.87 Log 2,–
Yy1,–,–,–,–,–,–,–,Max fold change in OTC (OTC [4]): 1.71
B1,2.35 Log 2,2.06 Log 2,three,"CPS1, OTC, ARG1",–,–,0.81 Log 2,–
B2,2.44 Log 2,2.05 Log 2,three,"CPS1, OTC, ARG1",–,–,0.68 Log 2,–
B3,3.46 Log 2,1.79 Log 2,five,–,1.09 Log 2,1.34 Log 2,–,"NAGS expression, Fold change (Log 2) vs untreated (NAGS): 0.63 Log 2"
B4,2.6 Log 2,2.07 Log 2,four,"CPS1, OTC, ARG1, SLC25A15",0.7 Log 2,–,0.92 Log 2,–
